Tested on: 13D11
Test: Inhibition of hydrolysis of 10 by 13D11 (secondary screening)
Format: biochemical, mice
Conditions: buffer tried as an alternative to Tris
Method: Antibody 13D11 (14.5 μM) was re-screened for activity toward 10 (nominally 500 μM) in the absence and presence of 63 μM (RT-2 hapten)(D/L mixture).
Until this point, 13D11 antibody had been purified by Protein A and DEAE chromatography. To determine whether the activity toward 10 was due to a contaminating enzyme, 13D11 was further purified on a Mono Q column (Pharmacia) by FPLC.

O=S(=O)(O)CCNC1CCCCC1 [CHES]
inhibition of the hydrolysis of 10 by 13D11: found to inhibit

— patent US6479265B1, “Catalytic antibodies which hydrolyze primary amides and methods for eliciting and use of such antibodies” (Igen International, Inc., priority 1993, dated 2002)
